We go through two sequences from US5576208A, “Antisense oligonucleotide inhibition of the RAS gene” (priority 1994, dated 1996).

“Also recorded” adds a separate entry of the source.

Series [1] deals with 25-base oligoribonucleotide of activated H-ras mRNA, mammalian RNase H. The series can be described thus: RNase H cleavage in vitro with HeLa nuclear extracts. The class given is biochemical, human. The note with it: HeLa nuclear extracts as source of RNase H. How it is done:
RNase H assays were performed using a chemically synthesized 25-base oligoribonucleotide corresponding to bases +23 to +47 of activated (codon 12, G→U) H-ras mRNA. The 5' end-labeled RNA was used at a concentration of 20 nM and incubated with a 10-fold molar excess of antisense oligonucleotide in a reaction containing 20 mM tris-Cl, pH 7.5, 100 mM KCl, 10 mM MgCl2, 1 mM dithiothreitol, 10 μg tRNA and 4 U RNasin in a final volume of 10 μl. The reaction components were preannealed at 37° C. for 15 Minutes then allowed to cool slowly to room temperature. HeLa cell nuclear extracts were used as a source of mammalian RNase H. Reactions were initiated by addition of 2 μg of nuclear extract (5 μl) and reactions were allowed to proceed for 10 Minutes at 37° C. Reactions were stopped by phenol/chloroform extraction and RNA components were precipitated with ethanol. Equal CPMs were loaded on a 20% polyacrylamide gel containing 7M urea and RNA cleavage products were resolved and visualized by electrophoresis followed by autoradiography. Quantitation of cleavage products was performed using a Molecular Dynamics Densitometer.

Series [2] concerns 47-mer H-ras RNA hairpin target. In words: Gel shift assay.
Experimental: The structured ras target transcript, a 47-nucleotide hairpin containing the mutated codon 12, was prepared and mapped as described in Lima et al., Biochemistry 1991, 31, 12055-12061. Hybridization reactions were prepared in 20 μl containing 100 mM sodium, 10 mM phosphate, 0.1 mM EDTA, 100 CPM of T7-generated RNA (approximately 10 pM), and antisense oligonucleotide ranging in concentration from 1 pM to 10 μM. Reactions were incubated 24 hours at 37° C. Following hybridization, loading buffer was added to the reactions and reaction products were resolved on 20% native polyacrylamide gels, prepared using 45 mM tris-borate and 1 mM MgCl2 (TBM). Electrophoresis was carried out at 10° C. and gels were quantitated using a Molecular Dynamics Phosphorimager.
Series [3] relates to mutant (activated, codon 12) H-ras RNA, ras-luciferase fusion reporter in HeLa cells. In words: ras-luciferase reporter gene assay, mutant form.
The test system of series [4] is T24 cancer cells. In words: Inhibition of proliferation of cancer cells. The series is classed as cell-based, human. How it is done:
Cells were seeded on 60 mm plates and were treated with oligonucleotide in the presence of DOTMA when they reached 70% confluency. Time course experiment: On day 1, cells were treated with a single dose of oligonucleotide at a final concentration of 100nM. The growth medium was changed once on day 3 and cells were counted every day for 5 days, using a counting chamber.

Series [5] concerns ras mRNA in HeLa cells (wild-type H-ras codon 12). The series can be described thus: Northern blot analysis of ras expression in HeLa cells. The class given is cell-based, human. On the procedure: HeLa cells were maintained as monolayers on 6-well plates in Dulbecco's Modified Eagle's medium (DMEM) supplemented with 10% fetal bovine serum and 100 U/ml penicillin. Treatment with oligonucleotide and isolation of RNA were essentially as described above for T24 cells.
Northern hybridization: 10 μg of each RNA was electrophoresed on a 1.2% agarose/formaldehyde gel and transferred overnight to GeneBind 45 nylon membrane (Pharmacia LKB, Piscataway, N.J.) using standard methods. […] RNA was UV-crosslinked to the membrane. Double-stranded ^32 P-labeled probes were synthesized using the Prime a Gene labeling kit (Promega, Madison Wis.). The ras probe was a SalI-NheI fragment of a cDNA clone of the activated (mutant) H-ras mRNA having a GGC-to-GTC mutation at codon-12. The control probe was G3PDH. Blots were prehybridized for 15 Minutes at 68° C. with the QuickHyb hybridization solution (Stratagene, La Jolla, Calif.). The heat-denatured radioactive probe (2.5×10^6 counts/2 ml hybridization solution) mixed with 100 μl of 10 Mg/ml salmon sperm DNA was added and the membrane was hybridized for 1 hour at 68° C. The blots were washed twice for 15 minutes at room temperature in 2× SSC/0.1% SDS and once for 30 minutes at 60° C. with 0.1XSSC/0.1%SDS. Blots were autoradiographed and the intensity of signal was quantitated using an ImageQuant PhosphorImager (Molecular Dynamics, Sunnyvale, Calif.). […]

The test system of series [6] is ras mRNA in T24 cells (activated codon 12). In words: Northern blot analysis of ras expression in T24 cells. The class given is cell-based, human. Details: inhibition of ras mRNA: concentration or dose not given beside the values. How it is done: The human urinary bladder cancer cell line T24 was obtained from the American Type Culture Collection (Rockville Md.). Cells were grown in McCoy's 5 A medium with L-glutamine (Gibco BRL, Gaithersburg Md.), supplemented with 10% heat-inactivated fetal calf serum and 50 U/ml each of penicillin and streptomycin. Cells were seeded on 100 Mm plates. When they reached 70% confluency, they were treated with oligonucleotide. Plates were washed with 10 ml prewarmed PBS and 5 ml of Opti-MEM reduced-serum medium containing 2.5 μl DOTMA. Oligonucleotide was then added to the desired concentration. After 4 hours of treatment, the medium was replaced with McCoy's medium. Cells were harvested 48 hours after oligonucleotide treatment and RNA was isolated using a standard CsCl purification method.
Northern hybridization: 10 μg of each RNA was electrophoresed on a 1.2% agarose/formaldehyde gel and transferred overnight to GeneBind 45 nylon membrane (Pharmacia LKB, Piscataway, N.J.) using standard methods. […] RNA was UV-crosslinked to the membrane. Double-stranded ^32 P-labeled probes were synthesized using the Prime a Gene labeling kit (Promega, Madison Wis.). The ras probe was a SalI-NheI fragment of a cDNA clone of the activated (mutant) H-ras mRNA having a GGC-to-GTC mutation at codon-12. The control probe was G3PDH. Blots were prehybridized for 15 Minutes at 68° C. with the QuickHyb hybridization solution (Stratagene, La Jolla, Calif.). The heat-denatured radioactive probe (2.5×10^6 counts/2 ml hybridization solution) mixed with 100 μl of 10 Mg/ml salmon sperm DNA was added and the membrane was hybridized for 1 hour at 68° C. The blots were washed twice for 15 minutes at room temperature in 2× SSC/0.1% SDS and once for 30 minutes at 60° C. with 0.1XSSC/0.1%SDS. Blots were autoradiographed and the intensity of signal was quantitated using an ImageQuant PhosphorImager (Molecular Dynamics, Sunnyvale, Calif.). Northern blots were first hybridized with the ras probe, then stripped by boiling for 15 Minutes in 0.1× SSC/0.1%SDS and rehybridized with the control G3PDH probe to check for correct sample loading.

For series [7], the system named is full length H-ras mRNA (activated, codon 12). In words: ras transactivation reporter gene system. Conditions: Table 5, antisense activity against H-ras; listed as Deoxy. (Reporter assays use an easily measured gene product as a stand-in for the process of interest.)
The conditions of series [8]: HeLa cell extract, 37° C.
Experimental: Oligonucleotides were incubated in crude HeLa cellular extracts at 37° C. to determine their sensitivity to nuclease degradation as described in Dignam et al., Nucleic Acids Res. 1983, 11, 1475-1489.
Series [9] relates to normal (wild type) H-ras RNA, ras-luciferase fusion reporter in HeLa cells. The series can be described thus: ras-luciferase reporter gene assay, normal form. The note with it: read-out: IC50, inhibition of ras-luciferase activity; normal (unmutated) ras-luciferase, dose-response.
Series [10] relates to 25-mer oligoribonucleotide complement (H-ras codon 12 RNA target). In words: Melting curves, hybridization to 25-mer RNA target. The class given is binding, human. On the procedure: Absorbance vs temperature curves were measured at 260 nm using a Gilford 260 spectrophotometer interfaced to an IBM PC computer and a Gilford Response II spectrophotometer. The buffer contained 100 mM Na^+, 10 mM phosphate and 0.1 mM EDTA, pH 7. Oligonucleotide concentration was 4 μM each strand determined from the absorbance at 85° C. and extinction coefficients calculated according to Puglisi and Tinoco, Methods in Enzymol. 1989, 180, 304-325. Tm values, free energies of duplex formation and association constants were obtained from fits of data to a two state model with linear sloping baselines. Petersheim, M. and Turner, D.H., Biochemistry 1983, 22, 256-263. Reported parameters are averages of at least three experiments. For some oligonucleotides, free energies of duplex formation were also obtained from plots of Tm^-1 vs log10 (concentration). Borer, P.N., Dengler, B., Tinoco, I., Jr., and Uhlenbeck, O.C., J. Mol. Biol., 1974, 86, 843-853.

With “CCACACCGACGGCGCCC (chemistry not given here) [compound 4122]”, in series [1], the “ability to direct RNase H cleavage” value is given as “no cleavage was observed”. In addition, the “binding to the hairpin target” value in series [2] (listed as full 2'--O--methyl 17-mer) is recorded as “formed the most stable duplex”.

For “CCACACCGACGGCGCCC [2570] (phosphorothioate, further chemistry not given here) [compound 2570]”, the “selectivity for inhibition of mutant ras-luciferase relative to wild type” value in series [3] (100 nM oligonucleotide) is “approximately 4 fold”. The “selectivity toward the mutant form of ras-luciferase as compared to the normal form” value in series [3] (at low concentrations) is “approximately threefold”. Also, in series [3] (dose-dependent experiment, FIG. 8), the “selectivity, mutant over wild type” value is listed as 5 fold. Further, the IC50 in series [3] (read-out: IC50, inhibition of ras-luciferase activity, mutant ras-luciferase, dose-response) is approximately 100 nM; in series [4] (T24 cells, dose-response, counted 3 days later, read-out: IC50, cell proliferation), 98 nM; in [7] it was 150 nM; in series [9], approximately 250 nM. In addition, the “selectivity toward the mutated form of ras-luciferase” value in series [3] (single dose 0.5 μM) is recorded as “displayed selectivity toward the mutated form of ras-luciferase”. Moreover, the “inhibition of T24 cell proliferation relative to HeLa cells” value in series [4] (100 nM oligonucleotide concentration) is given as “four times as severe”. Besides, in series [4] (T24 cells), the “inhibition of cell proliferation” value is 61%. The entries for the “inhibition of ras expression” value in series [5] and in [6] were “did not inhibit ras expression in HeLa cells” and “inhibited ras expression in T24 cells; also recorded: decreased ras mRNA levels in T24 cells”, respectively. In series [6], the “inhibition of ras mRNA” value was determined as 82%. Moreover, the “binding to the hairpin target” value in series [2] (listed as full deoxy 17-mer) was “formed the least stable duplex”. Moreover, the “degradation” value in series [8] is reported as “no degradation after 5 hours”. Besides, the melting temperature (Tm) in series [10] (Table 5, 2'-modified 17-mer with 7-deoxy gap, 25-mer oligoribonucleotide complement) came out at 64.2 °C. Also, the “ΔΔG°37” value in [10] (free energy difference between hybridization to mutant target and to wild type target) is recorded as “+1.8 kcal/mole”.

As a reminder, the Tm is the temperature at which the thermal transition is half complete.
